# Experimental data taken from publication PMC12504763, “Antiproliferation, 3D-multicellular spheroid and VEGFR-2 inhibitory properties of spiroindolin-2-ones with phosphonate function” (Scientific Reports, 2025).
# Like-named read-outs stand apart in the source and are kept apart here.
# Assays:
# TNF-α [1] = experiment: TNF-α inhibitory properties (ELISA), HCT116 cell lysate; format: cell-based, human; conditions: at 10 μM; for TNF-α pg/mL (± SEM) HCT116: control 95.74 ± 0.5
# [2] = tested on: MCF7 (breast) cancer cell line; experiment: 2D-monolayer antiproliferation (MTT) against MCF7; format: cell-based, human; conditions: for IC50: Homo sapiens, MTT, 72 h incubation, MCF7 breast, read-out: IC50, μM ± SEM MCF7; for SI (selectivity index) MCF7: IC50 of RPE1 normal cell/IC50 of MCF7
# [3] = tested on: HCT116 (colon) cancer cell line; experiment: 2D-monolayer antiproliferation (MTT) against HCT116; format: cell-based, human; conditions: for IC50: Homo sapiens, HCT-116; for SI (selectivity index) HCT116: IC50 of RPE1 normal cell/IC50 of HCT116
# COX-2 = biological target: T1, COX-2 (Homo sapiens, UniProt P35354); experiment: biochemical; conditions: for inhibition at 10 µM: 3 replicates, read-out: % Inhibition of COX-2 ± SEM; for SI (selectivity index, COX-2/COX-1): at 10 μM
# T1 construct: purchased BioVision incorporated USA K548–100
# T1 sequence (P35354 18-604): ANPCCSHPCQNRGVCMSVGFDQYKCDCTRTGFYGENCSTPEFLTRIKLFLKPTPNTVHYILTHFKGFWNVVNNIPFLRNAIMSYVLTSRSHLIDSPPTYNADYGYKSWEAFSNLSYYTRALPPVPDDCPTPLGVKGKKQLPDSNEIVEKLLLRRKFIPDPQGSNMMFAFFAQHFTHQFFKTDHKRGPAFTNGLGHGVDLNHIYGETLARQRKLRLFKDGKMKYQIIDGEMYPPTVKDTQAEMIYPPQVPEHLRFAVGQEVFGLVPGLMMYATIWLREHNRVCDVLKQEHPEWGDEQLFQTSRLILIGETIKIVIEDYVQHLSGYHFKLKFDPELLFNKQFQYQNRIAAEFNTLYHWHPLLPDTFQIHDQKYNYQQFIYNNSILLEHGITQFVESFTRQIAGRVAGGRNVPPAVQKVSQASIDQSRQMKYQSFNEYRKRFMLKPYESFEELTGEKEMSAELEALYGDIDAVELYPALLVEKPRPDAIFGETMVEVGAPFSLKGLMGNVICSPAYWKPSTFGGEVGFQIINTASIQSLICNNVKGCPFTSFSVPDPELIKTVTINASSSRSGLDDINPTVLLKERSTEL
# VEGFR-2 [4] = biological target: T2, VEGFR-2 (Homo sapiens, UniProt P35968); experiment: cell-based; format: cell-based; conditions: for inhibition at 10 µM: HCT-116, HCT116; for VEGFR-2 pg/mL ± SEM HCT116: at 10 μM, control 317.80 ± 3.5
# T2 construct: endogenous in cells; host or cells: HCT116, PaCa2, MCF7 (human cancer cell lines, ATCC origin)
# TNF-α [5] = experiment: TNF-α inhibitory properties (ELISA), PaCa2 cell lysate; format: cell-based, human; conditions: at 10 μM; for TNF-α pg/mL (± SEM) PaCa2: control 111.8 ± 2.0
# [6] = tested on: A549 (lung) cancer cell line; experiment: 2D-monolayer antiproliferation (MTT) against A549; format: cell-based, human; conditions: for IC50: Homo sapiens, MTT, 72 h incubation, A549 lung, read-out: IC50, μM ± SEM A549; for SI (selectivity index) A549: IC50 of RPE1 normal cell/IC50 of A549
# VEGFR-2 [7] = biological target: T2, VEGFR-2; experiment: cell-based; format: cell-based; conditions: for inhibition at 10 µM: PaCa-2, PaCa2; for VEGFR-2 pg/mL ± SEM PaCa2: at 10 μM, control 326.80 ± 1.9
# VEGFR-2 [8] = biological target: T2, VEGFR-2; experiment: cell-based; format: cell-based; conditions: for inhibition at 10 µM: MCF7; for VEGFR-2 pg/mL ± SEM MCF7: at 10 μM, control 258.70 ± 2.3
# COX-1 = biological target: T3, COX-1 (Ovis aries, UniProt P05979); experiment: biochemical; conditions: 3 replicates, read-out: % Inhibition of COX-1 ± SEM
# T3 construct: purchased BioVision incorporated USA K548–100
# T3 sequence (P05979 25-600): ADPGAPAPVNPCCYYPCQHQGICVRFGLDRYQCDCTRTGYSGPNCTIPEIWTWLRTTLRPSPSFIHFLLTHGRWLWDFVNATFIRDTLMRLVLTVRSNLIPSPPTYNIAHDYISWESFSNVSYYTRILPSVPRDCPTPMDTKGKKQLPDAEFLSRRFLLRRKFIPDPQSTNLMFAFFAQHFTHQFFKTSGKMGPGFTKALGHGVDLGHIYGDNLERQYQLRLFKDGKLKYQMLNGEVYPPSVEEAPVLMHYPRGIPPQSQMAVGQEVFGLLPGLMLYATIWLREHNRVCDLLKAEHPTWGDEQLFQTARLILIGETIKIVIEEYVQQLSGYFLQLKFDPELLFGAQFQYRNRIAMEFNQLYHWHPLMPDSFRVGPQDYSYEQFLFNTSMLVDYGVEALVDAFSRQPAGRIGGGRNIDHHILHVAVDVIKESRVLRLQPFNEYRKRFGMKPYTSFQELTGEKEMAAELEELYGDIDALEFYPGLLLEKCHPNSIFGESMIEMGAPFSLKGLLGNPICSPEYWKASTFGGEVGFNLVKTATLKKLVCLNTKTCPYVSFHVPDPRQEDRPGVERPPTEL
# [9] = tested on: PaCa2 (pancreatic) cancer cell line; experiment: 2D-monolayer antiproliferation (MTT) against PaCa2; format: cell-based, human; conditions: for 1/(observed property): 1/observed IC50 (μM), PaCa2; for IC50: Homo sapiens, PaCa-2, MTT, 72 h incubation, PaCa2 pancreatic, read-out: IC50, μM ± SEM PaCa2; for SI (selectivity index) PaCa2: IC50 of RPE1 normal cell/IC50 of PaCa2
# TNF-α [10] = experiment: TNF-α inhibitory properties (ELISA), MCF7 cell lysate; format: cell-based, human; conditions: at 10 μM; for TNF-α pg/mL (± SEM) MCF7: control 83.26 ± 1.1
# [11] = tested on: RPE1 (normal human immortalized retinal pigment epithelial cell line); experiment: cells; format: cell-based; conditions: for IC50: Homo sapiens, RPE-1, MTT, normal RPE1 cell, read-out: IC50, μM ± SEM RPE1; for selectivity index (SI): IC50 against RPE1 compared to the tested cancer cell line(s), in words
# [12] = MTT, 72 h incubation, HCT116 colon, read-out: IC50, μM ± SEM HCT116
# [13] = log of observed IC50 (μM), HCT116, read-out: Log(observed property) (converted)
# T2 sequence (P35968 20-1356): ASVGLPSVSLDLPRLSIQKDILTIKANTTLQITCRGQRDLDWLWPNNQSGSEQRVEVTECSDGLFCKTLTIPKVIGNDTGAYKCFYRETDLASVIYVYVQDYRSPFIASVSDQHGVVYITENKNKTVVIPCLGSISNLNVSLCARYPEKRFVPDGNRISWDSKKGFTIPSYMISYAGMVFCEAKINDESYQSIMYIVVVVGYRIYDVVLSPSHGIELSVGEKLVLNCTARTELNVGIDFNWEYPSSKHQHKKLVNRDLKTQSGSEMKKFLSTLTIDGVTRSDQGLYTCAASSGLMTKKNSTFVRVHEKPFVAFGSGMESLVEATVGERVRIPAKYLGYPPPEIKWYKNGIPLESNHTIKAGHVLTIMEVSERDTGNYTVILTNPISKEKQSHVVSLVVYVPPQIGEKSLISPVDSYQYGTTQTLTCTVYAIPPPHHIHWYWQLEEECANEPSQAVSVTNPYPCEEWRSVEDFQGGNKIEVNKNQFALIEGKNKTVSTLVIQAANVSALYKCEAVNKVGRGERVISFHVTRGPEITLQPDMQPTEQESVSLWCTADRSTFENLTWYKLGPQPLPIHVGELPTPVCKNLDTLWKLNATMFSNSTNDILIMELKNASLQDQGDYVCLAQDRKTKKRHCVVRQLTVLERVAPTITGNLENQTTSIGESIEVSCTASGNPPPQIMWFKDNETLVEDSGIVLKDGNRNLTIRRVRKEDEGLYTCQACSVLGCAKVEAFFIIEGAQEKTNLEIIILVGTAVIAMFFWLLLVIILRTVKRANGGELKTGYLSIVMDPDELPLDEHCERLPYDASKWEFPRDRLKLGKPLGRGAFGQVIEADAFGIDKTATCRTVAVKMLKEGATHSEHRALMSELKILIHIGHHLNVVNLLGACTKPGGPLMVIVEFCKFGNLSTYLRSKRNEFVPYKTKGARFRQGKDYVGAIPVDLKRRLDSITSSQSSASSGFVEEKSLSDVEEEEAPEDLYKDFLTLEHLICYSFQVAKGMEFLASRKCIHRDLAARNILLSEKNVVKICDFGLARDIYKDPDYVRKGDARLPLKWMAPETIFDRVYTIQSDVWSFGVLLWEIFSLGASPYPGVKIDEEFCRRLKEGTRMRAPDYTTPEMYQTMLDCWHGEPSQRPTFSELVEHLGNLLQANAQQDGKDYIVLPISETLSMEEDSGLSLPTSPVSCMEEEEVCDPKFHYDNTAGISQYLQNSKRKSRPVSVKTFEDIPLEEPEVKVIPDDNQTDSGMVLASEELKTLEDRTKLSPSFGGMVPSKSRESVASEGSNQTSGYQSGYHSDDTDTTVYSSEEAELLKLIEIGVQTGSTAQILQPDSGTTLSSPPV
Compound,TNF-α pg/mL (± SEM) HCT116 (TNF-α [1]),IC50 [2],SI (selectivity index) MCF7 [2],"IC50 [3, 12]",SI (selectivity index) HCT116 [3],inhibition at 10 µM (COX-2),inhibition at 10 µM (VEGFR-2 [4]),VEGFR-2 pg/mL ± SEM HCT116 (VEGFR-2 [4]),TNF-α pg/mL (± SEM) PaCa2 (TNF-α [5]),IC50 [6],SI (selectivity index) A549 [6],inhibition at 10 µM (VEGFR-2 [7]),VEGFR-2 pg/mL ± SEM PaCa2 (VEGFR-2 [7]),inhibition at 10 µM (VEGFR-2 [8]),VEGFR-2 pg/mL ± SEM MCF7 (VEGFR-2 [8]),inhibition at 10 µM (COX-1),1/(observed property) [9],IC50 [9],SI (selectivity index) PaCa2 [9],TNF-α % inhibition MCF7 (TNF-α [10]),also measured
"CCOP(=O)(OCC)N1C/C(=C\c2ccc(C)cc2)C(=O)C2(C1)C(c1ccc(C)cc1)CN(C)C21C(=O)Nc2ccc(Cl)cc21 (stereo not shown) [Compound 17o, Diethyl (E)-[5-chloro-1′-methyl-5′′-(4-methylbenzylidene)-2,4′′-dioxo-4′-(p-tolyl)dispiro[indoline-3,2′-pyrrolidine-3′,3′′-piperidin]-1′′-yl]phosphonate]",86.34 ± 0.9 pg/mL,4.67 ± 0.086 µM,> 10.7,3.76 ± 0.064 µM,> 13.3,59.3 ± 2.4%,84.8%,48.40 ± 0.6 pg/mL,95.6 ± 2.2 pg/mL,36 ± 1.15 µM,> 1.3,90.3%,31.64 ± 1.9 pg/mL,85%,38.70 ± 0.4 pg/mL,61.7 ± 3.4%,0.1594,6.27 ± 0.148 µM,> 8.0,1.7%,"TNF-α % inhibition HCT116 (TNF-α [1]): 9.8%; IC50 [3, 13]: 3.76 µM; SI (selectivity index, COX-2/COX-1) (COX-2): 1.14; TNF-α % inhibition PaCa2 (TNF-α [5]): 14.5%; TNF-α pg/mL (± SEM) MCF7 (TNF-α [10]): 81.85 ± 3.1 pg/mL; IC50 [11]: > 50 µM; selectivity index (SI) [11]: high selectivity index"
"CCOP(=O)(OCC)N1C/C(=C\c2ccc(F)cc2)C(=O)C2(C1)C(c1ccc(F)cc1)CN(C)C21C(=O)Nc2ccc(C)cc21 (stereo not shown) [Compound 17g, Diethyl (E)-(5′′-(4-fluorobenzylidene)-4′-(4-fluorophenyl)-1′,5-dimethyl-2,4′′-dioxodispiro[indoline-3,2′-pyrrolidine-3′,3′′-piperidin]-1′′-yl)phosphonate]",81.75 ± 2.1 pg/mL,5.43 ± 0.152 µM,3.5,5.01 ± 0.364 µM,3.8,51.8 ± 2.8%,69%,98.40 ± 1.2 pg/mL,97.4 ± 3.6 pg/mL,8.15 ± 0.277 µM,2.3,77.7%,72.80 ± 0.9 pg/mL,75%,64.80 ± 0.5 pg/mL,62.1 ± 3.1%,0.1641,6.09 ± 0.132 µM,3.1,0.3%,"TNF-α % inhibition HCT116 (TNF-α [1]): 14.6%; IC50 [3, 13]: 5.01 µM; TNF-α % inhibition PaCa2 (TNF-α [5]): 12.9%; TNF-α pg/mL (± SEM) MCF7 (TNF-α [10]): 83.0 ± 3.2 pg/mL; IC50 [11]: 19 ± 0.647 µM"
"CCOP(=O)(OCC)N1C/C(=C\c2ccc(F)cc2)C(=O)C2(C1)C(c1ccc(F)cc1)CN(C)C21C(=O)Nc2ccc(Cl)cc21 (stereo not shown) [Compound 17f, Diethyl (E)-[5-chloro-5′′-(4-fluorobenzylidene)-4′-(4-fluorophenyl)-1′-methyl-2,4′′-dioxodispiro[indoline-3,2′-pyrrolidine-3′,3′′-piperidin]-1′′-yl]phosphonate]",85.46 ± 1.3 pg/mL,5.29 ± 0.175 µM,7.5,3.72 ± 0.099 µM,10.7,60.8 ± 2.7%,86.2%,43.70 ± 0.9 pg/mL,109.8 ± 4.7 pg/mL,> 50 µM,< 0.8,91.6%,27.53 ± 1.1 pg/mL,75.6%,63.20 ± 0.9 pg/mL,57.6 ± 1.1%,0.1904,5.25 ± 0.224 µM,7.6,1.0%,"TNF-α % inhibition HCT116 (TNF-α [1]): 10.7%; SI (selectivity index, COX-2/COX-1) (COX-2): 1.01; activity fold of sunitinib [9]: 3.2 fold; TNF-α pg/mL (± SEM) MCF7 (TNF-α [10]): 82.45 ± 4.0 pg/mL; IC50 [11]: 39.9 ± 1.16 µM; selectivity index (SI) [11]: high selectivity index"
"CCOP(=O)(OCC)N1C/C(=C\c2cccs2)C(=O)C2(C1)C(c1cccs1)CN(C)C21C(=O)Nc2ccc(F)cc21 (stereo not shown) [Compound 17r, Diethyl (E)-(5-fluoro-1′-methyl-2,4′′-dioxo-4′-(thiophen-2-yl)-5′′-(thiophen-2-ylmethylene)dispiro[indoline-3,2′-pyrrolidine-3′,3′′-piperidin]-1′′-yl)phosphonate]",27.45 ± 1.4 pg/mL,6.22 ± 0.082 µM,2.7,7.67 ± 0.379 µM,2.2,51.8 ± 2%,78.8%,67.34 ± 0.4 pg/mL,27.5 ± 0.5 pg/mL,14.18 ± 0.135 µM,1.2,79.6%,66.53 ± 0.8 pg/mL,67.4%,84.30 ± 1.0 pg/mL,55.5 ± 2.6%,0.1206,8.29 ± 0.497 µM,2.1,69.4%,"IC50 [3, 13]: 7.67 µM; SI (selectivity index, COX-2/COX-1) (COX-2): 1.09; TNF-α % inhibition PaCa2 (TNF-α [5]): 75.4%; TNF-α pg/mL (± SEM) MCF7 (TNF-α [10]): 25.46 ± 0.9 pg/mL; IC50 [11]: 17 ± 0.557 µM"
